The source made the active and inactive calls. No cut-off for these calls is given here.
Key:
Mus musculus [1] = test: In vivo antitumor activity against tumor […]; Inactive; format: functional, organism-based
Mus musculus [2] = organism: Mus musculus; test: […] activity against C3H mice bearing panc-03 murine tumor; Inactive; format: functional, organism-based
Mus musculus [3] = test: In vivo activity tested against C3H mice bearing mammary adenocarcinoma -17/ADR tumor measured as log Kill value was based on tumors that grew at 750 mg/kg (po); format: functional, organism-based; set-up: dose 750 mg/kg
Mus musculus [4] = test: In vivo activity tested against C3H mice bearing mammary adenocarcinoma -17/ADR tumor measured as body weight loss at 750 mg/kg (po); format: functional
Mus musculus [5] = test: In vivo activity tested against C3H mice bearing mammary adenocarcinoma -17/ADR tumor measured as % treated/control calculated at 750 mg/kg (po); format: functional
Mus musculus [6] = test: In vivo activity tested against C3H mice bearing mammary adenocarcinoma -17/ADR tumor measured as log Kill value was based on tumors that grew at 1250 mg/kg (po); format: functional, organism-based; set-up: dose 1250 mg/kg
Mus musculus [7] = test: In vivo activity tested against C3H mice bearing mammary adenocarcinoma -17/ADR tumor measured as % treated/control calculated at 1250 mg/kg (po); format: functional
Mus musculus [8] = test: In vivo activity tested against C3H mice bearing mammary adenocarcinoma -17/ADR tumor measured as body weight loss at 1250 mg/kg (po); format: functional
Mus musculus [9] = test: In vivo activity against iv transplanted AML Leukemia 1498 tumors of mice; format: functional, organism-based
Mus musculus [10] = test: In vivo activity against transplanted Mel-B16 tumors of mice; format: functional, organism-based
Mus musculus [11] = test: In vivo activity against transplanted colon-51 tumors of mice; format: functional, organism-based
Mus musculus [12] = test: In vivo activity against transplanted colon-38 tumors of mice; format: functional, organism-based
Mus musculus [13] = test: In vivo activity against transplanted Mam-16/C tumors of mice; format: functional, organism-based
Mus musculus [14] = test: In vivo activity against transplanted Mam-16/C/Adr tumors of mice; format: functional, organism-based
Mus musculus [15] = test: In vivo activity against transplanted Panc-02 tumors of mice; format: functional, organism-based
Mus musculus [16] = test: In vivo activity against transplanted Mam-17/Adr tumors of mice; format: functional, organism-based
Mus musculus [17] = test: In vivo activity against transplanted Panc-03 tumors of mice; format: functional, organism-based
Mus musculus [18] = test: In vivo activity against iv transplanted Leukemia L1210 tumors of mice; format: functional, organism-based
Mus musculus [19] = test: In vivo activity against transplanted Mam-16/C/ Taxol tumors of mice; Not active; format: functional, organism-based
Mus musculus [20] = test: In vivo activity against transplanted colon-26 tumors of mice; format: functional, organism-based
Mus musculus [21] = test: In vivo activity against transplanted Squam lung-LC12 tumors of mice; format: functional, organism-based
Mus musculus [22] = test: In vivo activity against transplanted Mam-17 tumors of mice; format: functional, organism-based
Mus musculus [23] = test: In vivo activity against iv transplanted AML Leukemia 1498 tumors of mice; Not active; format: functional, organism-based
Mus musculus [24] = test: In vivo activity against transplanted Mam-16/C/Taxol tumors of mice; format: functional, organism-based
Mus musculus [25] = test: In vivo activity against C3H mice bearing panc-03 murine tumor; Inactive; format: functional, organism-based
Mus musculus [26] = test: In vivo activity tested against C3H mice bearing mammary adenocarcinoma -17/ADR tumor measured as body weight loss at 301 mg/kg (po); format: functional
Mus musculus [27] = test: In vivo activity tested against C3H mice bearing mammary adenocarcinoma -17/ADR tumor measured as % treated/control calculated at 301 mg/kg (po); format: functional
Mus musculus [28] = test: In vivo activity tested against C3H mice bearing mammary adenocarcinoma -17/ADR tumor measured as log Kill value was based on tumors that grew at 301 mg/kg (po); format: functional, organism-based; set-up: dose 301 mg/kg
Mus musculus [29] = test: In vivo activity tested against C3H mice bearing mammary adenocarcinoma -17/ADR tumor measured as activity rating at 301 mg/kg (po); format: functional

Molecule	Log kill (Mus musculus [10])	Log kill (Mus musculus [11])	Log kill (Mus musculus [12])	Log kill (Mus musculus [13])	Log kill (Mus musculus [14])	Log kill (Mus musculus [15])	Log kill (Mus musculus [16])	Log kill (Mus musculus [17])	Log kill (Mus musculus [18])	NA (Mus musculus [19])	Log kill (Mus musculus [20])	Log kill (Mus musculus [21])	Log kill (Mus musculus [22])	further results
CC(Oc1cnc2ccc(Cl)cc2n1)C(=O)O (stereo not given)														NA (Mus musculus [1]): inactive
CC(Oc1ccc(Oc2cnc3ccc(N)cc3n2)cc1)C(=O)O (stereo not given)														NA (Mus musculus [2]): inactive
CC(Oc1ccccc1Oc1cnc2ccc(Cl)cc2n1)C(=O)O (stereo not given)														NA (Mus musculus [1]): inactive
Cc1ccc2ncc(Oc3ccc(OC(C)C(=O)O)cc3)nc2c1 (stereo not given)														Log kill (Mus musculus [3]): 0.38; Body weight loss (Mus musculus [4]): 4.3%; T/C (Mus musculus [5]): 47%; Log kill (Mus musculus [6]): 0.63; T/C (Mus musculus [7]): 21%; Body weight loss (Mus musculus [8]): 7.1%
O=c1[nH]cc(F)c(=O)[nH]1	1.9	< 0.7	2.8	2.8	2.8	< 0.7	< 0.7	1.2	4.9	inactive	1.9	< 0.7	1.2	Log kill (Mus musculus [9]): 1.2
O=P1(N(CCCl)CCCl)NCCCO1 (stereo not given)	1.9	1.9	0.7	2.8	> 2.8	< 0.7	2.8	1.9	4.9	inactive	1.9	> 2.8	2.8	Log kill (Mus musculus [9]): > 2.8
O=NN(CCCl)C(=O)NCCCl	> 2.8	1.9	< 0.7	< 0.7	0.7	< 0.7	< 0.7	< 0.7	> 5	inactive	> 2.8	1.2	< 0.7	NA (Mus musculus [23]): inactive
CISPLATIN	1.9	1.9	0.7	1.2	1.2	< 0.7	> 2.8	1.9	2.9	inactive	1.9	> 2.8	2.8	NA (Mus musculus [23]): inactive
CC(C#N)Oc1ccc(Oc2cnc3ccc(Cl)cc3n2)cc1 (stereo not given)														NA (Mus musculus [2]): inactive
COc1cccc2c1C(=O)c1c(O)c3c(c(O)c1C2=O)C[C@@](O)(C(=O)CO)C[C@@H]3O[C@H]1C[C@H](N)[C@H](O)[C@H](C)O1	0.7	0.7	1.9	> 2.8	0.7	< 0.7	< 0.7	2.8	1.9		0.7	> 2.8	> 2.8	Log kill (Mus musculus [9]): > 2.8; Log kill (Mus musculus [24]): 2.8
CC(Oc1ccc(Oc2cnc3ccc(Cl)cc3n2)cc1)C(=O)NO (stereo not given)														NA (Mus musculus [25]): inactive
C[C@H](Oc1ccc(Oc2cnc3ccc(Cl)cc3n2)cc1)C(=O)O														Body weight loss (Mus musculus [26]): -3%; T/C (Mus musculus [27]): 0%; Log kill (Mus musculus [28]): 2.7; Activity rating (Mus musculus [29]): >2.8

Source: ChEMBL document CHEMBL1134487, “Design, synthesis, and biological evaluation of analogues of the antitumor agent, 2-(4-[(7-chloro-2-quinoxalinyl)oxy]phenoxy)propionic acid (XK469)” (2001)
